Source: US20230085307A1, “PYRIDAZINONE COMPOUND AND HERBICIDE” (NISSAN CHEMICAL CORPORATION, priority 2019, published 2023)

Tests used:
[1] = tested on: velvetleaf; assay: Test Example 4: herbicidal effect by soil treatment (Table 19, symbol M); type: in vivo, velvetleaf (Abutilon theophrasti); conditions: amount of applied herbicide 320 g/ha
Procedure, shortened: (§1)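 Step 1: sow seeds in sterilized diluvial soil, cover ~1.5 cm. Step 2: spray diluted emulsion onto soil surface at predetermined rate. Step 3: greenhouse, 25–30° C, three weeks. Step 4: grade effect on each plant by earlier criteria.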

[2] = tested on: barnyard grass; assay: Test Example 4: herbicidal effect by soil treatment (Table 19, symbol H); type: in vivo, barnyard grass (Echinochloa crus-galli); conditions: amount of applied herbicide 320 g/ha
Procedure, shortened: as §1

[3] = tested on: lambsquarters; assay: Test Example 5: herbicidal effect by foliage application, plastic box (Table 20, symbol O); type: in vivo, lambsquarters (Chenopodium album); conditions: foliage application, 320 g/ha, evaluated three weeks after application
Procedure, shortened: (§2)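 Foliar spray test: emulsion formulation diluted in water to a set application rate, sprayed onto 14-day-old plants raised in diluvial soil at 25° C to 30° C under glass. Both herbicidal effect and crop effect rated visually three weeks later.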

[4] = tested on: blackgrass; assay: Test Example 5: herbicidal effect by foliage application, plastic box (Table 20, symbol J); type: in vivo, blackgrass (Alopecurus myosuroides); conditions: foliage application, 320 g/ha, evaluated three weeks after application
Procedure, shortened: as §2

[5] = tested on: persian speedwell; assay: Test Example 4: herbicidal effect by soil treatment (Table 19, symbol R); type: in vivo, Persian speedwell (Veronica persica); conditions: amount of applied herbicide 320 g/ha
Procedure, shortened: as §1

[6] = tested on: windgrass; assay: Test Example 5: herbicidal effect by foliage application, plastic box (Table 20, symbol L); type: in vivo, windgrass (Apera spica-venti); conditions: foliage application, 320 g/ha, evaluated three weeks after application
Procedure, shortened: as §2

[7] = tested on: wild oat; assay: Test Example 4: herbicidal effect by soil treatment (Table 19, symbol I); type: in vivo, wild oat (Avena fatua); conditions: amount of applied herbicide 320 g/ha
Procedure, shortened: as §1

[8] = tested on: chickweed; assay: Test Example 5: herbicidal effect by foliage application, plastic box (Table 20, symbol P); type: in vivo, common chickweed (Stellaria media); conditions: foliage application, 320 g/ha, evaluated three weeks after application
Procedure, shortened: as §2

[9] = tested on: persian speedwell; assay: Test Example 5: herbicidal effect by foliage application, plastic box (Table 20, symbol R); type: in vivo, Persian speedwell (Veronica persica); conditions: foliage application, 320 g/ha, evaluated three weeks after application
Procedure, shortened: as §2

[10] = tested on: Japanese bulrush; assay: Test Example 1: herbicidal activity, application before weed generation under submerged conditions (Table 16, symbol B); type: in vivo, Japanese bulrush (Schoenoplectus juncoides); conditions: 320 g/ha applied herbicide
Procedure, shortened: (§3)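 Submerged Wagner pots (alluvial soil, 4 cm water) sown with weed seeds and planted with 2.5-leaf rice seedlings; emulsifiable concentrate diluted in water applied to water surface on sowing day. Held in greenhouse at 25-30 °C; injury scored 0-5 by herbicidal rate after three weeks.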

[11] = tested on: windgrass; assay: Test Example 4: herbicidal effect by soil treatment (Table 19, symbol L); type: in vivo, windgrass (Apera spica-venti); conditions: amount of applied herbicide 320 g/ha
Procedure, shortened: as §1

[12] = tested on: blackgrass; assay: Test Example 4: herbicidal effect by soil treatment (Table 19, symbol J); type: in vivo, blackgrass (Alopecurus myosuroides); conditions: amount of applied herbicide 320 g/ha
Procedure, shortened: as §1

[13] = tested on: southern crabgrass; assay: Test Example 5: herbicidal effect by foliage application, plastic box (Table 20, symbol F); type: in vivo, southern crabgrass (Digitaria ciliaris); conditions: foliage application, 320 g/ha, evaluated three weeks after application
Procedure, shortened: as §2

[14] = tested on: oval-leafed pondweed; assay: Test Example 1: herbicidal activity, application before weed generation under submerged conditions (Table 16, symbol C); type: in vivo, oval-leafed pondweed (Monochoria vaginalis); conditions: 320 g/ha applied herbicide
Procedure, shortened: as §3

[15] = tested on: barnyard grass; assay: Test Example 3: herbicidal effect by foliage application, Wagner pot (Table 18, symbol H); type: in vivo, barnyard grass (Echinochloa crus-galli); conditions: amount of applied herbicide 320 g/ha
Procedure, shortened: (§4)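 Plants were sown in alluvial soil held under 0.1–0.5 cm standing water and grown 14 days in a greenhouse at 25–30 °C. An emulsifiable formulation, water-diluted to the set dose, was then sprayed onto the foliage, and effects were scored three weeks later using previously defined criteria.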

[16] = tested on: late watergrass; assay: Test Example 1: herbicidal activity, application before weed generation under submerged conditions (Table 16, symbol A); type: in vivo, late watergrass (Echinochloa oryzicola); conditions: 320 g/ha applied herbicide
Procedure, shortened: as §3

[17] = tested on: green foxtail; assay: Test Example 4: herbicidal effect by soil treatment (Table 19, symbol G); type: in vivo, green foxtail (Setaria viridis); conditions: amount of applied herbicide 320 g/ha
Procedure, shortened: as §1

[18] = tested on: chickweed; assay: Test Example 4: herbicidal effect by soil treatment (Table 19, symbol P); type: in vivo, common chickweed (Stellaria media); conditions: amount of applied herbicide 320 g/ha
Procedure, shortened: as §1

[19] = tested on: green foxtail; assay: Test Example 5: herbicidal effect by foliage application, plastic box (Table 20, symbol G); type: in vivo, green foxtail (Setaria viridis); conditions: foliage application, 320 g/ha, evaluated three weeks after application
Procedure, shortened: as §2

[20] = tested on: Italian ryegrass; assay: Test Example 4: herbicidal effect by soil treatment (Table 19, symbol K); type: in vivo, Italian ryegrass (Lolium multiflorum); conditions: amount of applied herbicide 320 g/ha
Procedure, shortened: as §1

[21] = tested on: Chinese sprangletop; assay: Test Example 3: herbicidal effect by foliage application, Wagner pot (Table 18, symbol D); type: in vivo, chinese sprangletop (Leptochloa chinensis); conditions: amount of applied herbicide 320 g/ha
Procedure, shortened: as §4

[22] = tested on: redroot pigweed; assay: Test Example 5: herbicidal effect by foliage application, plastic box (Table 20, symbol N); type: in vivo, redroot pigweed (Amaranthus retroflexus); conditions: foliage application, 320 g/ha, evaluated three weeks after application
Procedure, shortened: as §2

[23] = tested on: redroot pigweed; assay: Test Example 4: herbicidal effect by soil treatment (Table 19, symbol N); type: in vivo, redroot pigweed (Amaranthus retroflexus); conditions: amount of applied herbicide 320 g/ha
Procedure, shortened: as §1

[24] = tested on: lambsquarters; assay: Test Example 4: herbicidal effect by soil treatment (Table 19, symbol O); type: in vivo, lambsquarters (Chenopodium album); conditions: amount of applied herbicide 320 g/ha
Procedure, shortened: as §1

[25] = tested on: southern crabgrass; assay: Test Example 4: herbicidal effect by soil treatment (Table 19, symbol F); type: in vivo, southern crabgrass (Digitaria ciliaris); conditions: amount of applied herbicide 320 g/ha
Procedure, shortened: as §1

[26] = tested on: barnyard grass; assay: Test Example 5: herbicidal effect by foliage application, plastic box (Table 20, symbol H); type: in vivo, barnyard grass (Echinochloa crus-galli); conditions: foliage application, 320 g/ha, evaluated three weeks after application
Procedure, shortened: as §2

[27] = tested on: rice flat sedge; assay: Test Example 3: herbicidal effect by foliage application, Wagner pot (Table 18, symbol E); type: in vivo, rice flat sedge (Cyperus iria); conditions: amount of applied herbicide 320 g/ha
Procedure, shortened: as §4

[28] = tested on: velvetleaf; assay: Test Example 5: herbicidal effect by foliage application, plastic box (Table 20, symbol M); type: in vivo, velvetleaf (Abutilon theophrasti); conditions: foliage application, 320 g/ha, evaluated three weeks after application
Procedure, shortened: as §2

[29] = tested on: Italian ryegrass; assay: Test Example 5: herbicidal effect by foliage application, plastic box (Table 20, symbol K); type: in vivo, Italian ryegrass (Lolium multiflorum); conditions: foliage application, 320 g/ha, evaluated three weeks after application
Procedure, shortened: as §2

[30] = tested on: wild oat; assay: Test Example 5: herbicidal effect by foliage application, plastic box (Table 20, symbol I); type: in vivo, wild oat (Avena fatua); conditions: foliage application, 320 g/ha, evaluated three weeks after application
Procedure, shortened: as §2

## CCCCCCOc1cccc(-c2sc3ccc(F)cc3c2-c2c(O)c(C)nn(C)c2=O)c1 [2-226]
[1]
  herbicidal effect on M: velvetleaf: 0 (Herbicidal rate of 5% or less (almost no effect))
[2]
  herbicidal effect on H: barnyard grass: 0 (Herbicidal rate of 5% or less (almost no effect))
[3]
  herbicidal effect on O: lambsquarters (criteria 0-5): 4 (Herbicidal rate of 70% or more and less than 90%)
[4]
  herbicidal effect on J: blackgrass (criteria 0-5): 0 (Herbicidal rate of 5% or less (almost no effect))
[5]
  herbicidal effect on R: persian speedwell: 0 (Herbicidal rate of 5% or less (almost no effect))
[6]
  herbicidal effect on L: windgrass (criteria 0-5): 5 (Herbicidal rate of 90% or more (almost completely withered))
[7]
  herbicidal effect on I: wild oat: 0 (Herbicidal rate of 5% or less (almost no effect))
[8]
  herbicidal effect on P: chickweed (criteria 0-5): 4 (Herbicidal rate of 70% or more and less than 90%)
[9]
  herbicidal effect on R: persian speedwell (criteria 0-5): 0 (Herbicidal rate of 5% or less (almost no effect))
[10]
  Herbicidal effect on B: Japanese bulrush (grade 0-5): 0 (Herbicidal rate of 5% or less (almost no effect))
[11]
  herbicidal effect on L: windgrass: 0 (Herbicidal rate of 5% or less (almost no effect))
[12]
  herbicidal effect on J: blackgrass: 0 (Herbicidal rate of 5% or less (almost no effect))
[13]
  herbicidal effect on F: southern crabgrass (criteria 0-5): 0 (Herbicidal rate of 5% or less (almost no effect))
[14]
  Herbicidal effect on C: oval-leafed pondweed (grade 0-5): 0 (Herbicidal rate of 5% or less (almost no effect))
[15]
  herbicidal effect on H: barnyard grass: 4 (Herbicidal rate of 70% or more and less than 90%)
[16]
  Herbicidal effect on A: late watergrass (grade 0-5): 2 (Herbicidal rate of 20% or more and less than 40%)
[17]
  herbicidal effect on G: green foxtail: 0 (Herbicidal rate of 5% or less (almost no effect))
[18]
  herbicidal effect on P: chickweed: 0 (Herbicidal rate of 5% or less (almost no effect))
[19]
  herbicidal effect on G: green foxtail (criteria 0-5): 0 (Herbicidal rate of 5% or less (almost no effect))
[20]
  herbicidal effect on K: Italian ryegrass: 0 (Herbicidal rate of 5% or less (almost no effect))
[21]
  herbicidal effect on D: Chinese sprangletop: 3 (Herbicidal rate of 40% or more and less than 70%)
[22]
  herbicidal effect on N: redroot pigweed (criteria 0-5): 5 (Herbicidal rate of 90% or more (almost completely withered))
[23]
  herbicidal effect on N: redroot pigweed: 3 (Herbicidal rate of 40% or more and less than 70%)
[24]
  herbicidal effect on O: lambsquarters: 0 (Herbicidal rate of 5% or less (almost no effect))
[25]
  herbicidal effect on F: southern crabgrass: 0 (Herbicidal rate of 5% or less (almost no effect))
[26]
  herbicidal effect on H: barnyard grass (criteria 0-5): 0 (Herbicidal rate of 5% or less (almost no effect))
[27]
  herbicidal effect on E: rice flat sedge: 3 (Herbicidal rate of 40% or more and less than 70%)
[28]
  herbicidal effect on M: velvetleaf (criteria 0-5): 4 (Herbicidal rate of 70% or more and less than 90%)
[29]
  herbicidal effect on K: Italian ryegrass (criteria 0-5): 0 (Herbicidal rate of 5% or less (almost no effect))
[30]
  herbicidal effect on I: wild oat (criteria 0-5): 0 (Herbicidal rate of 5% or less (almost no effect))
